Columns and labels:
RAW 264.7 cells [1] = assay: Cytotoxicity test (MTT dye), RAW 264.7; format: cell-based, mouse
Experimental: (§1) Cell culture. NIH/3T3 (mouse embryo fibroblast, CCRC 60008) and RAW 264.7 (mouse monocyte/macrophage, CCRC 60001) cell lines were obtained from Culture Collection and Research Center (CCRC), Taiwan. Both cell lines were cultured in Dulbecco's modified essential medium (DMEM, GIBCO BRL, Rockville, MD) containing 1.5 g/L NaHCO3 supplemented with 10% fetal bovine serum (Hyclone, Logan, UT) and incubated in 5% CO2 at 37°C. Cell cultures were examined for mycoplasma contamination with the fluorescent stain Hoechst 33258 (Hay et al., ATCC Quality Control Methods for Cell Lines, American Type Culture Collection, Manassas, VA, 1992, pp 23-33). All cultures described in the present example were mycoplasma-free.
Collagen/chitin-coated wells. Two mixtures were prepared. A mixture of collagen type I (rat tail, Sigma, St. Louis, MO) was dissolved in 0.1 N acetic acid to produce a 1 mg/ml collagen solution. […]
Cytotoxicity test. […] Cytotoxicity was measured using the dye 3-(4,5-dimethylthiazol-2-yl)-2,5-diphenyl tetrazolium bromide (MTT; Merck Co., Germany) and following the methods described in Mosmann, J. Immunol. […]
The cytotoxicity associated with chitin and chitosan was evaluated for both mouse embryonic fibroblast NIH/3T3 cells and mouse monocyte-macrophage RAW 264.7 cells. […]

RAW 264.7 cells [2] = assay: Measurement of NO production via nitrite detection (Griess reagents) in IFN-γ and LPS activated macrophages; format: cell-based, mouse; settings: for effect on NO production (in words): activated RAW 264.7 cells
Experimental: as §1
Collagen/chitin-coated wells. Two mixtures were prepared. A mixture of collagen type I (rat tail, Sigma, St. Louis, MO) was dissolved in 0.1 N acetic acid to produce a 1 mg/ml collagen solution. Chitin was added to 0.1 N acetic acid until a 1 mg/ml mixture was achieved, and the mixture was sonicated for 3 minutes using a Labsonic U sonicator, (Braun Biotech International, Germany). After being autoclaved at 121°C for 15 minutes, the chitin mixture became a slurry of fine wires. Microtiter tissue culture plates (96-well) were rinsed with Dulbecco's phosphate-buffer saline without Ca^+2 and Mg^+2 (D-PBS, GIBCO BRL). Five microliters of collagen solution or different amounts of the chitin mixture were then added to each well. The plates were then air-dried in a laminar flow hood and stored at 4°C for up to a week.
Measurement of NO production via nitrite detection. Nitric oxide (NO) production was indirectly quantified by measuring the accumulation of nitrite (NO2^-) in the culture media using Griess reagents and sodium nitrite as a standard (Green et al., Anal. Biochem. 126:131-138, 1982; and Ignarro et al., Proc. Natl. Acad. Sci. USA 90:8103-8107, 1993). For nitrite assays, RAW 264.7 cells were subcultured in coated 96-well tissue culture plates at 1 x 10^5 cells/well and incubated for 24 hours. The culture media were changed to phenol red-free, serum-free DMEM containing 100 U/ml interferon-γ (IFN-γ, recombinant murine; GIBCO BRL) and 100 ng/ml lipopolysaccharide (LPS, Escherichia coli serotype O128:B12; Sigma). The samples were then tested as described in Rollo et al., J. Leukoc. Biol. 60:397-404, 1996.
To measure the effect of chitin on NO production, cells were subcultured directly in the chitin-coated 96-well tissue culture plates. After overnight incubation, cells became adhered to the bottom of chitin-coated wells. The culture media were removed and replaced with media supplemented with IFN-γ and LPS as described above. After 48 hours incubation, […] of culture supernatants were mixed sequentially with equal volumes of 60 mM sulfanilamide (Sigma) in 3 N HCl and 4 mM N-1-naphthylethylenediamine (Sigma) and then shaken for 5 minutes at room temperature as described in Rollo et al., supra. Nitrite concentration was measured by reading the sample's absorbance at 540 nm using a microplate reader (MRX, Dynex Technologies, Inc., VA).

[3] = 10 µg/ml in culture medium, activated RAW 264.7
[4] = Mus musculus, RAW264.7, 48 h, 10 µg/ml in culture medium, activated RAW 264.7, read-out: Nitrite Production as Percentage of Control
[5] = 2 µg/ml in culture medium, activated RAW 264.7
[6] = 10 µg/ml in culture medium, activated RAW 264.7, 2880 min

For `CC(=O)N[C@H]1C(O)O[C@H](CO)[C@@H](O)[C@@H]1O` (stereo partly shown) [NAGA, N-acetylglucosamine, reference compound], the cytotoxicity (RAW 264.7 cells [1]) was “not cytotoxic”, the “Nitrite Production” value (RAW 264.7 cells [2]; [3]) was 66.7 ± 0.9 µM and the activity at 10 µg/mL (RAW 264.7 cells [2]; [4]) was 102%.

In the case of `CC(=O)N[C@H]1[C@H](O[C@H]2[C@H](O)[C@@H](NC(C)=O)C(O)O[C@@H]2CO)O[C@H](CO)[C@@H](O)[C@@H]1O` (stereo partly drawn) [chitobiose, 2-acetamido-2-deoxy-4-O-(2-acetamido-2-deoxy-b-D-glucopyranosyl)-D-glucopyranose], the “Nitrite Production” value (RAW 264.7 cells [2]; [5]) is reported as 64.9 ± 0.8 µM, the “Nitrite Production” value (RAW 264.7 cells [2]; [3]) is reported as 64.1 ± 0.9 µM and the activity at 2 µg/mL (RAW 264.7 cells [2]; Mus musculus, RAW264.7, 48 h, 2 µg/ml in culture medium, activated RAW 264.7, read-out: Nitrite Production as Percentage of Control) is reported as 98.9%. For the same compound, the activity at 10 µg/mL (RAW 264.7 cells [2]; [4]) was 97.7%.

With `N[C@H]1C(O)O[C@H](CO)[C@@H](O)[C@@H]1O` (stereo partly shown) [glucoseamine, glucosamine, reference compound] the cytotoxicity (RAW 264.7 cells [1]) was “not cytotoxic”, the “Nitrite Production” value (RAW 264.7 cells [2]; [3]) was 64.3 ± 0.8 µM and the activity at 10 µg/mL (RAW 264.7 cells [2]; [4]) was 98%.

In the case of chitohexose, the “Nitrite Production” value (RAW 264.7 cells [2]; [5]) is reported as 41.3 ± 0.8 µM, the “Nitrite Production as Percentage of Control” value (RAW 264.7 cells [2]; [5]) is reported as 63 Percentage of Control and the “Nitrite Production” value (RAW 264.7 cells [2]; [3]) is reported as 35.8 ± 2.9 µM. The “Nitrite Production as Percentage of Control” value (RAW 264.7 cells [2]; [6]) was 54.5 Percentage of Control and the “effect on NO production (in words)” value (RAW 264.7 cells [2]) was “did substantially decrease NO production”.

For chitopentose, the “Nitrite Production” value (RAW 264.7 cells [2]; [5]) was 47.0 ± 0.5 µM, the “Nitrite Production as Percentage of Control” value (RAW 264.7 cells [2]; [5]) was 70.6 Percentage of Control and the “Nitrite Production” value (RAW 264.7 cells [2]; [3]) was 42.7 ± 1.2 µM. The “Nitrite Production as Percentage of Control” value (RAW 264.7 cells [2]; [6]) was 65.1 Percentage of Control and the “effect on NO production (in words)” value (RAW 264.7 cells [2]) was “did substantially decrease NO production”.

With chitotetraose the “Nitrite Production” value (RAW 264.7 cells [2]; [5]) was 63.4 ± 0.5 µM, the “Nitrite Production as Percentage of Control” value (RAW 264.7 cells [2]; [5]) was 96.6 Percentage of Control and the “Nitrite Production” value (RAW 264.7 cells [2]; [3]) was 61.3 ± 0.6 µM. The “Nitrite Production as Percentage of Control” value (RAW 264.7 cells [2]; [6]) was 93.4 Percentage of Control.

In the case of chitotriose, the “Nitrite Production” value (RAW 264.7 cells [2]; [5]) is reported as 61.5 ± 0.9 µM, the “Nitrite Production as Percentage of Control” value (RAW 264.7 cells [2]; [5]) is reported as 93.8 Percentage of Control and the “Nitrite Production” value (RAW 264.7 cells [2]; [3]) is reported as 61.1 ± 0.2 µM. For the same compound, the “Nitrite Production as Percentage of Control” value (RAW 264.7 cells [2]; [6]) was 93.1 Percentage of Control.

Source: patent EP1127574A1, “Use of chitinous materials for inhibiting cellular nitric oxide production” (Food Industry Research and Development Institute, priority 2000, dated 2001)
